Results as given in patent publication US20240327351A1, “AMIDE AND ETHER SUBSTITUTED N-(1H-INDOL-7-YL)BENZENESULFONAMIDES AND USES THEREOF” (TRIANA BIOMEDICINES, INC., priority 2021, published 2024).

Key:
[1] = molecular target: DCAF15/RBM39 (Homo sapiens, UniProt Q14498+Q66K64); test: AlphaLISA compound-induced DCAF15-RBM39 ternary complex formation; format: binding; details: His-tagged DCAF15 complex and biotin-carrying RBM39
Procedure: Example 6: Quantitative Evaluation of Compound-Induced Ternary Complex Formation Using Amplified Luminescent Proximity Homogeneous Assay
Compound-induced DCAF15-RBM39 ternary complex formation was monitored using AlphaLISA® assays (Perkin Elmer, Waltham, MA). Test compounds were first collected in a 384-well microplate (cat. #781280, Grenier Bio-One, Monroe, NC) as 2 mM stocks in 100% dimethyl sulfoxide (DMSO). These stocks were then serially diluted in DMSO by 3-fold into a new plate (cat. #781280, Grenier Bio-One, Monroe, NC) using a Mosquito HTS dispenser (mosquito@ HTS, SPT Labtech, Boston, MA). 0.2 ul of these diluted stocks were then dispensed into a 384-well Optiplate (cat. #6007290, Perkin Elmer, Waltham, MA) in duplicate wells, to assemble the final assay plate consisting of duplicated dose ranges. Separately, a protein mixture consisting of His-tagged DCAF15 complex and biotin-carrying RBM39, each at 408 nM (2.04×), was prepared in 50 mM HEPES, pH 7.5, 100 mM NaCl, 2 mM MgCl2, 0.1% BSA, 2 mM TCEP, 0.05% Tween-20 (dilution buffer). 9.8 ul of this protein mixture was then mixed with the compounds in the assay plate and incubated for one hour at room temperature. Reaction mixtures with no compounds added were included as negative controls, while a His-tagged and biotinylated GST protein was included to track general assay performance. Nickel Chelate AlphaLISA Acceptor beads (cat. #AL108M, Perkin Elmer, MA) and AlphaScreen Streptavidin Donor beads (cat. #6760002, Perkin Elmer, Waltham, MA) were prepared separately in the dilution buffer as 4× stocks (80 ug/ml). The beads were then added to the assay plate sequentially with incubation at room temperature for 1-2 hours after each addition. Signals were recorded using EnVision 2104 Multilabel Plate Reader (Perkin Elmer, Waltham, MA) and titration curves were generated in GraphPad Prism (7.00, GraphPad, La Jolla, CA).

[2] = molecular target: DCAF15 (Homo sapiens, UniProt Q66K64); test: HTRF competition assay, binary interaction between compounds and DCAF15; format: binding; details: competition with Alexa Fluor 647 tracer, His-tagged DCAF15 complex
Procedure: Example 7: Measurement of Binary Interaction Between Compounds And DCAF15 Using Homogeneous Time Resolved Fluorescence (HTRF)
DCAF15 interactions with test compounds were monitored using HTRF competition assays (Cisbio, Bedford, MA). Test compounds were first collected in a 384-well microplate (cat. #781280, Grenier Bio-One, Monroe, NC) as 10 mM stocks in 100% dimethyl sulfoxide (DMSO). A second stock plate (cat. #781280, Grenier Bio-One, Monroe, NC) was prepared through 3-fold serial dilution in DMSO of the afore-mentioned stocks using a Mosquito HTS dispenser (mosquito@ HTS, SPT Labtech, Boston, MA). 0.2 ul of these diluted stocks were then dispensed into a 384-well Optiplate (cat. #6007290, Perkin Elmer, Waltham, MA) in duplicate wells, to assemble the assay plate. The tracer molecule containing an Alexa Fluor 647 probe was prepared in 25 mM HEPES pH 7.5, 100 mM NaCl, 0.1 mg/ml BSA, 0.005% Tween 20, 0.5 mM TCEP (dilution buffer) to 612 nM (2.04×). Separately, His-tagged DCAF15 complex was prepared at 32 nM (4×) in the dilution buffer, and mAb Anti-6His-Eu cryptate Gold (cat. #61H12KLA, Cisbio, Bedford, MA) at 4× dilution in the detection buffer (cat. #61 DB9RDF, Cisbio, Bedford, MA). These two solutions were mixed and incubated for 15 min at room temperature. 9.8 ul of the tracer solution and 10 ul of the DCAF15/mAb Anti-6His-Eu cryptate Gold mixture were added sequentially to each well in the assay plate. Reaction mixtures with no DCAF15 added were included as positive controls. The final mixture was incubated for an hour at room temperature and spun down briefly before data collection at 615 nm and 666 nm using En Vision 2104 Multilabel Plate Reader (Perkin Elmer, Bedford, MA). Binding was estimated based on ratiometric analysis and titration curves were generated in GraphPad Prism (7.00, GraphPad, La Jolla, CA).

Row | Compound | EC50 [1] [µM] | IC50 [2] [µM]
1 | CN1C[C@@H](NC(=O)c2ccc(S(=O)(=O)Nc3ccc(Cl)c4c(Cl)c[nH]c34)c(F)c2)CCC1=O [Compound 159] | < 1 | < 1
2 | O=S(=O)(Nc1ccc(Cl)c2c(Cl)c[nH]c12)c1cccc(OC[C@@H]2CCCNC2)c1 [Compound 45] | < 1 | 10 to 100
3 | CC(C)(C)OC(=O)N1CCC2(CC1)CN(C(=O)c1ccc(S(=O)(=O)Nc3ccc(Cl)c4c(Cl)c[nH]c34)c(F)c1)CCO2 [Compound 225] | 1 to 10 | 1 to 10
4 | O=S(=O)(Nc1ccc(Cl)c2c(Cl)c[nH]c12)c1ccc(OCc2cccc(OC(F)F)c2)cc1 [Compound 54] | 1 to 10 | > 100
5 | O=C(NCCCOCc1ccccc1)c1cccc(S(=O)(=O)Nc2ccc(Cl)c3c(Cl)c[nH]c23)c1F [Compound 204] | 1 to 10 | 1 to 10
6 | O=C1CC[C@H](NC(=O)c2ccc(S(=O)(=O)Nc3ccc(Cl)c4c(Cl)c[nH]c34)c(F)c2)CN1 [Compound 157] | < 1 | < 1
7 | NC[C@H]1CC[C@H](Oc2ccc(S(=O)(=O)Nc3ccc(Cl)c4c(Cl)c[nH]c34)cc2)CC1 [Compound 15] | 1 to 10 | 1 to 10
8 | O=S(=O)(Nc1ccc(Cl)c2c(Cl)c[nH]c12)c1ccc(O[C@H]2CC[C@H](OCc3ccccc3)CC2)cc1 [Compound 19] | > 100 | > 100
9 | COCCOCCCNC(=O)c1ccc(S(=O)(=O)Nc2ccc(Cl)c3c(Cl)c[nH]c23)c(F)c1 [Compound 203] | < 1 | 1 to 10
10 | CN(C)C(=O)c1cccc(S(=O)(=O)Nc2ccc(Cl)c3c(Cl)c[nH]c23)c1 [Compound 238] | 1 to 10 | 1 to 10
11 | CC(C)CNC(=O)c1ccc(S(=O)(=O)Nc2ccc(Cl)c3c(Cl)c[nH]c23)cc1 [Compound 239] | < 1 | > 100
12 | O=S(=O)(Nc1ccc(Cl)c2c(Cl)c[nH]c12)c1cccc(OCCCc2ccc3c(c2)OCO3)c1 [Compound 111] | > 100 | > 100
13 | O=C(NC[C@H]1Cc2ccccc21)c1cccc(S(=O)(=O)Nc2ccc(Cl)c3c(Cl)c[nH]c23)c1F [Compound 164] | 1 to 10 | 1 to 10
14 | O=S(=O)(Nc1ccc(Cl)c2c(Cl)c[nH]c12)c1cccc(OCCC[C@@H]2CCCN2)c1 [Compound 96] | < 1 | > 100
15 | CS(=O)(=O)c1ccc(CCOc2cccc(S(=O)(=O)Nc3ccc(Cl)c4c(Cl)c[nH]c34)c2)cc1 [Compound 76] | 1 to 10 | > 100
16 | O=S(=O)(Nc1ccc(Cl)c2c(Cl)c[nH]c12)c1ccc(OCc2ccc3c(c2)CNC3)cc1 [Compound 66] | < 1 | 1 to 10
17 | O=C(N[C@H]1CCCCNC1=O)c1cccc(S(=O)(=O)Nc2ccc(Cl)c3c(Cl)c[nH]c23)c1F [Compound 160] | < 1 | < 1
18 | O=S(=O)(Nc1ccc(Cl)c2c(Cl)c[nH]c12)c1ccc(OCCCC2CCNCC2)cc1 [Compound 99] | < 1 | 1 to 10
19 | O=c1oc2ccccc2n1CCCOc1cccc(S(=O)(=O)Nc2ccc(Cl)c3c(Cl)c[nH]c23)c1 [Compound 112] | 1 to 10 | > 100
20 | CCS(=O)(=O)CCNC(=O)c1ccc(S(=O)(=O)Nc2ccc(Cl)c3c(Cl)c[nH]c23)c(F)c1 [Compound 191] | < 1 | < 1
21 | NS(=O)(=O)c1ccc(S(=O)(=O)Nc2cccc3c(Cl)c[nH]c23)cc1 [Indisulam, indisulam, reference compound] | < 1 | 

Results, then the compound that gave them:

Row | EC50 [1] [µM] | IC50 [2] [µM] | Compound
22 | 1 to 10 | 1 to 10 | CN(C)C(=O)c1ccc(CCNC(=O)c2cccc(S(=O)(=O)Nc3ccc(Cl)c4c(Cl)c[nH]c34)c2F)cc1 [Compound 194]
23 | < 1 | 10 to 100 | CC1(CCOc2cccc(S(=O)(=O)Nc3ccc(Cl)c4c(Cl)c[nH]c34)c2)CCNCC1 [Compound 74]
24 | 1 to 10 | 1 to 10 | CC(C)(C)OC(=O)NC1(CNC(=O)c2cccc(S(=O)(=O)Nc3ccc(Cl)c4c(Cl)c[nH]c34)c2F)CC1 [Compound 162]
25 | < 1 | < 1 | O=C(N[C@H]1CCCCNC1=O)c1ccc(S(=O)(=O)Nc2ccc(Cl)c3c(Cl)c[nH]c23)c(F)c1 [Compound 161]
26 | < 1 | 1 to 10 | O=S(=O)(Nc1ccc(Cl)c2c(Cl)c[nH]c12)c1ccc(OC2CC3(CNC3)C2)cc1 [Compound 25, 4-((2-azaspiro[3.3]heptan-6-yl)oxy)-N-(3,4-dichloro-1H-indol-7-yl)benzenesulfonamide]
27 | 1 to 10 | > 100 | O=S(=O)(Nc1ccc(Cl)c2c(Cl)c[nH]c12)c1cccc(OCc2cccc(OC(F)F)c2)c1 [Compound 53]
28 | < 1 | > 100 | O=S(=O)(Nc1ccc(Cl)c2c(Cl)c[nH]c12)c1ccc(OCC2COC2)cc1 [Compound 40]
29 | < 1 | < 1 | O=C(c1cccc(S(=O)(=O)Nc2ccc(Cl)c3c(Cl)c[nH]c23)c1F)N1CCC(c2ccnc(C(F)F)c2)CC1 [Compound 221]
30 | < 1 | 1 to 10 | O=S(=O)(Nc1ccc(Cl)c2c(Cl)c[nH]c12)c1ccc(OC(F)F)c(F)c1 [Compound 38]
31 | > 100 | > 100 | CCc1cnc(N2CCC(CCCOc3cccc(S(=O)(=O)Nc4ccc(Cl)c5c(Cl)c[nH]c45)c3)CC2)nc1 [Compound 100]
32 | > 100 | > 100 | COc1cccc(Oc2ccc(CNC(=O)c3ccc(S(=O)(=O)Nc4ccc(Cl)c5c(Cl)c[nH]c45)c(F)c3)cn2)c1 [Compound 182]
33 | 10 to 100 | > 100 | O=S(=O)(Nc1ccc(Cl)c2c(Cl)c[nH]c12)c1ccc(Oc2ccc(Br)cc2)cc1 [Compound 35]
34 | 1 to 10 | > 100 | O=c1oc2ccccc2n1CCCOc1ccc(S(=O)(=O)Nc2ccc(Cl)c3c(Cl)c[nH]c23)cc1 [Compound 113]
35 | 1 to 10 | 1 to 10 | CC(C)C(=O)Nc1cccc(CNC(=O)c2ccc(S(=O)(=O)Nc3ccc(Cl)c4c(Cl)c[nH]c34)c(F)c2)c1 [Compound 169]
36 | 1 to 10 |  | Nc1ccc(S(=O)(=O)Nc2cnc3c(Cl)cccc3n2)cc1 [CQS, cloroquinoxaline sulfonamide, reference compound]
37 | 1 to 10 |  | O=C(NS(=O)(=O)c1ccc(Br)s1)c1ccc(Cl)cc1Cl [Tasisulam, tasisulam, reference compound]
